Reference: patent US12304890B2, “R-type pyridyloxycarboxylic acid, salt and ester derivative thereof, and preparation method therefor, and herbicidal composition and application thereof” (Qingdao Kingagroot Chemical Compound Co., Ltd., priority 2018, dated 2025)

What was measured:
Format in all cases: in vivo
[1] = test system: Echinochloa crusgalli; assay: Post-emergence test experiment, Echinochloa crusgalli; conditions: 1000 g a.i./ha, 3 weeks in greenhouse, fresh weight inhibition
Method in brief: (§1)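 Pot-grown plants, sown 2 weeks earlier and at 2-3 leaves, received a foliar spray of compound in acetone/tween-80 with methyl oleate adjuvant. Effect was expressed as fresh weight inhibition rate after three further greenhouse weeks.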

[2] = test system: Digitaria sanguinalis; assay: Post-emergence test experiment, Digitaria sanguinalis; conditions: 1000 g a.i./ha, 3 weeks in greenhouse, fresh weight inhibition
Method in brief: as §1

[3] = test system: Monocotyledonous and dicotyledonous weed seeds and main crop seeds; assay: Post-emergence test experiment, other weeds and crops (Table 4, 1000 g a.i./ha); conditions: 3 weeks in greenhouse, fresh weight inhibition
Method in brief: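 Weed and crop seeds (wheat, corn, rice, soybean, cotton, oilseed, millet, sorghum) sown in soil pots in a greenhouse and sprayed at 2-3 leaf stage, 2 weeks after sowing. Compound in acetone/tween-80 with methyl oleate concentrate (1.5 L/ha) as synergist. Effect recorded as fresh-weight growth inhibition rate.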

Structure (SMILES) | Activity level (growth inhibition rate), Echinochloa crusgalli [1] | Activity level (growth inhibition rate), Digitaria sanguinalis [2] | Activity level (growth inhibition rate), Abutilon theophrasti Medic. [3] | Activity level (growth inhibition rate), Galium aparine [3] | Activity level (growth inhibition rate), Monochoria Vaginalis [3]
C#CCOC(=O)C(C)Oc1nc(F)c(Cl)c(N)c1Cl (stereo not drawn) [Compound 2-275] | 5 (Level 5: the growth inhibition rate is greater than 85%) | 5 (Level 5: the growth inhibition rate is greater than 85%) | 5 (Level 5: the growth inhibition rate is greater than 85%) | 5 (Level 5: the growth inhibition rate is greater than 85%) | 5 (Level 5: the growth inhibition rate is greater than 85%)
C[C@@H](Oc1nc(F)c(Cl)c(N)c1Cl)C(=O)OCCF [Compound 2-276] | 5 (Level 5: the growth inhibition rate is greater than 85%) | 5 (Level 5: the growth inhibition rate is greater than 85%) | 5 (Level 5: the growth inhibition rate is greater than 85%) | 5 (Level 5: the growth inhibition rate is greater than 85%) | 5 (Level 5: the growth inhibition rate is greater than 85%)
C[C@@H](Oc1nc(F)c(Cl)c(N)c1Cl)C(=O)OCCCl [Compound 2-277] | 5 (Level 5: the growth inhibition rate is greater than 85%) | 5 (Level 5: the growth inhibition rate is greater than 85%) | 5 (Level 5: the growth inhibition rate is greater than 85%) | 5 (Level 5: the growth inhibition rate is greater than 85%) | 5 (Level 5: the growth inhibition rate is greater than 85%)
C[C@@H](Oc1nc(F)c(Cl)c(N)c1Cl)C(=O)OCCBr [Compound 2-278] | 5 (Level 5: the growth inhibition rate is greater than 85%) | 5 (Level 5: the growth inhibition rate is greater than 85%) | 5 (Level 5: the growth inhibition rate is greater than 85%) | 5 (Level 5: the growth inhibition rate is greater than 85%) | 5 (Level 5: the growth inhibition rate is greater than 85%)
C[C@@H](Oc1nc(F)c(Cl)c(N)c1Cl)C(=O)OCC(F)F [Compound 2-279] | 5 (Level 5: the growth inhibition rate is greater than 85%) | 5 (Level 5: the growth inhibition rate is greater than 85%) | 5 (Level 5: the growth inhibition rate is greater than 85%) | 5 (Level 5: the growth inhibition rate is greater than 85%) | 5 (Level 5: the growth inhibition rate is greater than 85%)
C[C@@H](Oc1nc(F)c(Cl)c(N)c1Cl)C(=O)OCC(F)(F)F [Compound 2-281] | 5 (Level 5: the growth inhibition rate is greater than 85%) | 5 (Level 5: the growth inhibition rate is greater than 85%) | 5 (Level 5: the growth inhibition rate is greater than 85%) | 5 (Level 5: the growth inhibition rate is greater than 85%) | 5 (Level 5: the growth inhibition rate is greater than 85%)
